{
  "source": "ChEMBL document CHEMBL1201862",
  "about": "“PubChem BioAssay data set” (2004)",
  "test_in_all_cases": "NCI anticancer screen, dose series, 48 h",
  "key": {"NCI/ADR-RES": {"system": "NCI/ADR-RES"}, "SN12C": {"system": "SN12C"}, "CAKI-1": {"system": "CAKI-1"}, "SNB-75": {"system": "SNB-75"}, "COLO 205": {"system": "COLO 205"}, "HCT-116": {"system": "HCT-116"}, "RXF 393": {"system": "RXF 393"}, "SK-OV-3": {"system": "SK-OV-3"}, "NCI-H23": {"system": "NCI-H23"}, "KM12": {"system": "KM12"}, "UO-31": {"system": "UO-31"}, "EKVX": {"system": "EKVX"}, "OVCAR-8": {"system": "OVCAR-8"}, "MCF7": {"system": "MCF7"}, "OVCAR-3": {"system": "OVCAR-3"}, "KM-20L2": {"system": "KM-20L2"}, "LOX IMVI": {"system": "LOX IMVI"}, "OVCAR-4": {"system": "OVCAR-4"}, "HT-29": {"system": "HT-29"}, "A549": {"system": "A549"}, "SNB-19": {"system": "SNB-19"}, "U-251": {"system": "U-251"}, "UACC-62": {"system": "UACC-62"}, "Malme-3M": {"system": "Malme-3M"}, "M19-MEL": {"system": "M19-MEL"}, "CCRF-CEM": {"system": "CCRF-CEM"}, "SF-295": {"system": "SF-295"}, "SK-MEL-5": {"system": "SK-MEL-5"}, "UACC-257": {"system": "UACC-257"}, "SK-MEL-2": {"system": "SK-MEL-2"}, "SK-MEL-28": {"system": "SK-MEL-28"}, "RPMI-8226": {"system": "RPMI-8226"}, "SF-539": {"system": "SF-539"}, "HL-60": {"system": "HL-60"}, "IGROV-1": {"system": "IGROV-1"}, "SF-268": {"system": "SF-268"}, "K562": {"system": "K562"}, "DMS-114": {"system": "DMS-114"}, "NCI-H226": {"system": "NCI-H226"}, "DLD-1": {"system": "DLD-1"}, "HCC 2998": {"system": "HCC 2998"}, "DMS-273": {"system": "DMS-273"}, "XF498": {"system": "XF498"}, "NCI-H460": {"system": "NCI-H460"}, "OVCAR-5": {"system": "OVCAR-5"}, "A498": {"system": "A498"}, "SNB-78": {"system": "SNB-78"}, "SW-620": {"system": "SW-620"}, "HOP-62": {"system": "HOP-62"}, "HOP-18": {"system": "HOP-18"}, "HCT-15": {"system": "HCT-15"}, "MOLT-4": {"system": "MOLT-4"}, "NCI-H522": {"system": "NCI-H522"}, "HOP-92": {"system": "HOP-92"}},
  "note": "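Assay format: 96-well plates, 48-hour exposure. The concentration for 50% growth inhibition is given as GI50.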 The source made the active and inactive calls. Cut-off read from the data, not from the text of the source: active = GI50 up to about 1.1 µM and inactive = higher.",
  "data": [
    {"smiles": "CCN(CC)CCCC(C)Nc1c2ccc(Cl)cc2nc2cc(Cl)ccc12", "note": "(centres undefined)", "values": [
      {"measurement": "GI50", "setting": "NCI/ADR-RES", "result": "3.44 µM (inactive)"},
      {"measurement": "GI50", "setting": "SN12C", "result": "4.66 µM (inactive)"},
      {"measurement": "GI50", "setting": "CAKI-1", "result": "3.22 µM (inactive)"},
      {"measurement": "GI50", "setting": "SNB-75", "result": "7.03 µM (inactive)"},
      {"measurement": "GI50", "setting": "COLO 205", "result": "1.94 µM (inactive)"},
      {"measurement": "GI50", "setting": "HCT-116", "result": "2.27 µM (inactive)"},
      {"measurement": "GI50", "setting": "RXF 393", "result": "3.23 µM (inactive)"},
      {"measurement": "GI50", "setting": "SK-OV-3", "result": "5.6 µM (inactive)"},
      {"measurement": "GI50", "setting": "NCI-H23", "result": "6.62 µM (inactive)"},
      {"measurement": "GI50", "setting": "KM12", "result": "3.56 µM (inactive)"},
      {"measurement": "GI50", "setting": "UO-31", "result": "3.57 µM (inactive)"},
      {"measurement": "GI50", "setting": "EKVX", "result": "9.73 µM (inactive)"},
      {"measurement": "GI50", "setting": "OVCAR-8", "result": "4.55 µM (inactive)"},
      {"measurement": "GI50", "setting": "MCF7", "result": "3.13 µM (inactive)"},
      {"measurement": "GI50", "setting": "OVCAR-3", "result": "5.71 µM (inactive)"},
      {"measurement": "GI50", "setting": "KM-20L2", "result": "3.42 µM (inactive)"},
      {"measurement": "GI50", "setting": "LOX IMVI", "result": "2.64 µM (inactive)"},
      {"measurement": "GI50", "setting": "OVCAR-4", "result": "3.37 µM (inactive)"},
      {"measurement": "GI50", "setting": "HT-29", "result": "2.47 µM (inactive)"},
      {"measurement": "GI50", "setting": "A549", "result": "4.78 µM (inactive)"},
      {"measurement": "GI50", "setting": "SNB-19", "result": "17 µM (inactive)"},
      {"measurement": "GI50", "setting": "U-251", "result": "5.09 µM (inactive)"},
      {"measurement": "GI50", "setting": "UACC-62", "result": "6.89 µM (inactive)"},
      {"measurement": "GI50", "setting": "Malme-3M", "result": "12.2 µM (inactive)"},
      {"measurement": "GI50", "setting": "M19-MEL", "result": "4.85 µM (inactive)"},
      {"measurement": "GI50", "setting": "CCRF-CEM", "result": "1.76 µM (inactive)"},
      {"measurement": "GI50", "setting": "SF-295", "result": "3.4 µM (inactive)"},
      {"measurement": "GI50", "setting": "SK-MEL-5", "result": "4.76 µM (inactive)"},
      {"measurement": "GI50", "setting": "UACC-257", "result": "4.6 µM (inactive)"},
      {"measurement": "GI50", "setting": "SK-MEL-2", "result": "15.7 µM (inactive)"},
      {"measurement": "GI50", "setting": "SK-MEL-28", "result": "5.6 µM (inactive)"},
      {"measurement": "GI50", "setting": "RPMI-8226", "result": "2.23 µM (inactive)"},
      {"measurement": "GI50", "setting": "SF-539", "result": "4.34 µM (inactive)"},
      {"measurement": "GI50", "setting": "HL-60", "result": "1.91 µM (inactive)"},
      {"measurement": "GI50", "setting": "IGROV-1", "result": "4.76 µM (inactive)"},
      {"measurement": "GI50", "setting": "SF-268", "result": "4.9 µM (inactive)"},
      {"measurement": "GI50", "setting": "K562", "result": "2.21 µM (inactive)"},
      {"measurement": "GI50", "setting": "DMS-114", "result": "4.41 µM (inactive)"},
      {"measurement": "GI50", "setting": "NCI-H226", "result": "4.27 µM (inactive)"},
      {"measurement": "GI50", "setting": "DLD-1", "result": "2.94 µM (inactive)"},
      {"measurement": "GI50", "setting": "HCC 2998", "result": "2.16 µM (inactive)"},
      {"measurement": "GI50", "setting": "DMS-273", "result": "3.32 µM (inactive)"},
      {"measurement": "GI50", "setting": "XF498", "result": "4.99 µM (inactive)"},
      {"measurement": "GI50", "setting": "NCI-H460", "result": "3.31 µM (inactive)"},
      {"measurement": "GI50", "setting": "OVCAR-5", "result": "6.7 µM (inactive)"},
      {"measurement": "GI50", "setting": "A498", "result": "8.67 µM (inactive)"},
      {"measurement": "GI50", "setting": "SNB-78", "result": "9.82 µM (inactive)"},
      {"measurement": "GI50", "setting": "SW-620", "result": "3.24 µM (inactive)"},
      {"measurement": "GI50", "setting": "HOP-62", "result": "8.18 µM (inactive)"},
      {"measurement": "GI50", "setting": "HOP-18", "result": "5.42 µM (inactive)"},
      {"measurement": "GI50", "setting": "HCT-15", "result": 3.04, "unit": "µM"},
      {"measurement": "GI50", "setting": "MOLT-4", "result": "1.98 µM (inactive)"},
      {"measurement": "GI50", "setting": "NCI-H522", "result": "5.07 µM (inactive)"},
      {"measurement": "GI50", "setting": "HOP-92", "result": "2.77 µM (inactive)"}
    ]}
  ]
}
